Measured values: the supplement of paper PMC11061612

What was measured:
Experiment in all cases: combination Emax (second highest fraction inhibited in the dose matrix, 72 h); higher = more inhibition; extreme values may be limits of the assay
NB14 (Neuroblastoma) = test system: NB14 (Neuroblastoma)
Procedure, shortened: (§1)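 Cell lines in DMEM/F12 or RPMI with 10% FBS were plated in 1536-well plates, held 24 hours at 37°C, 5% CO2, then given two-drug dose matrices for 72 hours (DMSO typically 0.2%). Viability was read by CellTiter-Glo 2.0 luminescence and scaled as inhibition from 0 (vehicle wells) to 1 (blank wells). Combination Emax is the second-highest inhibition in the matrix; Bliss excess is observed combination effect minus expected EA + EB − EA·EB, EA and EB being single-agent effects.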

[1] = test system: SW1116 (Colorectal Carcinoma)
Procedure, shortened: as §1

[2] = test system: HO-1-u-1 (Oral Cavity Carcinoma)
Procedure, shortened: as §1

[3] = test system: HARA (Squamous Cell Lung Carcinoma)
Procedure, shortened: as §1

[4] = test system: LU-139 (Small Cell Lung Carcinoma)
Procedure, shortened: as §1

[5] = test system: PCI-30 (Head and Neck Carcinoma)
Procedure, shortened: as §1

[6] = test system: K5 (Thyroid Gland Carcinoma)
Procedure, shortened: as §1

[7] = test system: 8305C (Thyroid Gland Carcinoma)
Procedure, shortened: as §1

[8] = test system: CAL-54 (Kidney Carcinoma)
Procedure, shortened: as §1

NCI-H2795 (Mesothelioma) = test system: NCI-H2795 (Mesothelioma)
Procedure, shortened: as §1

[9] = test system: SW1271 (Small Cell Lung Carcinoma)
Procedure, shortened: as §1

[10] = test system: MDA-MB-468 (Breast Carcinoma)
Procedure, shortened: as §1

NCI-H28 (Mesothelioma) = test system: NCI-H28 (Mesothelioma)
Procedure, shortened: as §1

[11] = test system: OVCAR-8 (Ovarian Carcinoma)
Procedure, shortened: as §1

[12] = test system: KYSE-410 (Esophageal Squamous Cell Carcinoma)
Procedure, shortened: as §1

[13] = test system: MHH-PREB-1 (B-Cell Non-Hodgkin's Lymphoma)
Procedure, shortened: as §1

[14] = test system: SW626 (Colorectal Carcinoma)
Procedure, shortened: as §1

[15] = test system: 639-V (Bladder Carcinoma)
Procedure, shortened: as §1

[16] = test system: LB771-HNC (Head and Neck Carcinoma)
Procedure, shortened: as §1

| SMILES | combination Emax (NB14 (Neuroblastoma)) | combination Emax [1] | combination Emax [2] | combination Emax [3] | combination Emax [4] | combination Emax [5] | combination Emax [6] | combination Emax [7] | combination Emax [8] | combination Emax (NCI-H2795 (Mesothelioma)) | combination Emax [9] | combination Emax [10] | combination Emax (NCI-H28 (Mesothelioma)) | combination Emax [11] | combination Emax [12] | combination Emax [13] | combination Emax [14] | combination Emax [15] | combination Emax [16] |
| --- | --- | --- | --- | --- | --- | --- | --- | --- | --- | --- | --- | --- | --- | --- | --- | --- | --- | --- | --- |
| C=CCn1c(=O)c2cnc(Nc3ccc(N4CCN(C)CC4)cc3)nc2n1-c1cccc(C(C)(C)O)n1 [AZD1775] + CCc1c2c(nc3ccc(O)cc13)-c1cc3c(c(=O)n1C2)COC(=O)[C@]3(O)CC [SN-38] (first compound max 1 µM, partner max 0.3 µM) | 0.997 | 0.43 | 0.869 | 0.943 | 0.849 | 0.836 | 0.594 | 0.589 | 0.843 | 0.779 | 0.62 | 0.828 | 0.551 | – | – | – | – | – | – |
| COc1nnc2ccc(N3CCC(c4ccc(OCCN5CCN(C)C(=O)[C@H]5C)cc4)CC3)nn12 [AZD5153] + Cc1c2c(nn1C)CSCc1cc(n(C)n1)CSc1cc(c3ccccc3c1)OCCCc1c(C(=O)O)n(C)c3c-2c(Cl)ccc13 [AZD5991] (first compound max 1 µM, 7x7, partner max 1 µM) | 0.934 | 0.414 | 0.561 | 0.741 | 0.91 | 0.344 | 0.678 | 0.545 | 0.729 | 0.864 | 0.512 | – | 0.465 | 0.905 | 0.348 | 0.461 | 0.704 | 0.653 | 0.915 |
| Cn1cnc2c(F)c(Nc3ccc(Br)cc3Cl)c(C(=O)NOCCO)cc21 [Selumetinib] + CCN(CCO)CCCOc1ccc2c(Nc3cc(CC(=O)Nc4cccc(F)c4)[nH]n3)ncnc2c1 [AZD2811] (first compound max 10 µM, 7x7, partner max 1 µM) | 0.866 | 0.534 | 0.328 | 0.409 | 0.247 | 0.233 | 0.599 | 0.438 | 0.382 | 0.858 | 0.485 | – | 0.352 | 0.246 | 0.256 | 0.134 | 0.624 | 0.342 | 0.152 |
| C[C@@H](c1ccc2nccn2c1)n1nnc2ncc(-c3cnn(C)c3)nc21 [Savolitinib] + Cc1c2c(nn1C)CSCc1cc(n(C)n1)CSc1cc(c3ccccc3c1)OCCCc1c(C(=O)O)n(C)c3c-2c(Cl)ccc13 [AZD5991] (first compound max 1 µM, 7x7, partner max 1 µM) | 0.293 | 0.218 | 0.196 | 0.236 | 0.126 | 0.146 | 0.14 | 0.196 | 0.188 | 0.574 | 0.166 | – | 0.155 | 0.0965 | 0.181 | 0.0906 | 0.221 | 0.21 | 0.412 |
| COc1nnc2ccc(N3CCC(c4ccc(OCCN5CCN(C)C(=O)[C@H]5C)cc4)CC3)nn12 [AZD5153] + Cn1cnc2c(F)c(Nc3ccc(Br)cc3Cl)c(C(=O)NOCCO)cc21 [Selumetinib] (first compound max 1 µM, 7x7, partner max 10 µM) | 0.892 | 0.699 | 0.558 | 0.708 | 0.912 | 0.368 | 0.845 | 0.576 | 0.765 | 0.853 | 0.676 | – | 0.502 | 0.759 | 0.345 | 0.459 | 0.881 | 0.676 | 0.475 |
| Cn1cnc2c(F)c(Nc3ccc(Br)cc3Cl)c(C(=O)NOCCO)cc21 [Selumetinib] + C=CCn1c(=O)c2cnc(Nc3ccc(N4CCN(C)CC4)cc3)nc2n1-c1cccc(C(C)(C)O)n1 [AZD1775] (first compound max 10 µM, partner max 1 µM) | 1 | 0.444 | 0.456 | 0.919 | 0.332 | 0.173 | 0.596 | 0.481 | 0.643 | 0.851 | 0.565 | – | 0.433 | 0.872 | 0.431 | 0.777 | 0.724 | 0.455 | 0.452 |
| COc1nnc2ccc(N3CCC(c4ccc(OCCN5CCN(C)C(=O)[C@H]5C)cc4)CC3)nn12 [AZD5153] + C=CCn1c(=O)c2cnc(Nc3ccc(N4CCN(C)CC4)cc3)nc2n1-c1cccc(C(C)(C)O)n1 [AZD1775] (first compound max 1 µM, partner max 1 µM) | 1 | 0.397 | 0.735 | 0.928 | 0.89 | 0.395 | 0.719 | 0.674 | 0.832 | 0.597 | 0.649 | – | 0.508 | 0.863 | 0.491 | 0.825 | 0.75 | 0.714 | 0.627 |
| Cn1cnc2c(F)c(Nc3ccc(Br)cc3Cl)c(C(=O)NOCCO)cc21 [Selumetinib] + C[C@@H]1COCCN1C2=NC(=NC(=C2)C3(CC3)[S@](=N)(=O)C)C4=C5C=CNC5=NC=C4 [AZD6738] (first compound max 10 µM, 7x7, partner max 10 µM) | 0.97 | 0.476 | 0.718 | 0.835 | 0.053 | 0.371 | 0.689 | 0.534 | 0.616 | 0.855 | 0.552 | – | 0.471 | 0.739 | 0.302 | 0.675 | 0.681 | 0.464 | 0.503 |
| COc1cc2ncnc(Nc3ccc(F)c(Cl)c3)c2cc1OCCCN1CCOCC1 [Gefitinib] + CC(C)n1c(=O)n(C)c2cnc3cc(F)c(-c4ccc(OCCCN5CCCCC5)nc4)cc3c21 [AZD1390] (first compound max 10 µM, 7x7, partner max 0.3 µM) | 0.128 | 0.241 | 0.487 | 0.298 | 0.0288 | 0.131 | 0.0692 | 0.298 | 0.486 | 0.324 | 0.188 | – | 0.346 | 0.223 | 0.362 | 0.123 | 0.0985 | 0.158 | 0.0839 |
| CS(=O)(=O)CCNCc1ccc(-c2ccc3ncnc(Nc4ccc(OCc5cccc(F)c5)c(Cl)c4)c3c2)o1 [Lapatinib] + Cn1cnc2c(F)c(Nc3ccc(Br)cc3Cl)c(C(=O)NOCCO)cc21 [Selumetinib] (first compound max 10 µM, 7x7, partner max 10 µM) | 0.898 | 0.73 | 0.789 | 0.76 | 0.161 | 0.335 | 0.597 | 0.542 | 0.559 | 0.893 | 0.646 | 0.882 | 0.412 | – | – | – | – | – | – |
| COc1nnc2ccc(N3CCC(c4ccc(OCCN5CCN(C)C(=O)[C@H]5C)cc4)CC3)nn12 [AZD5153] + CCN(CCO)CCCOc1ccc2c(Nc3cc(CC(=O)Nc4cccc(F)c4)[nH]n3)ncnc2c1 [AZD2811] (first compound max 1 µM, 7x7, partner max 1 µM) | 0.858 | 0.397 | 0.578 | 0.679 | 0.903 | 0.41 | 0.714 | 0.594 | 0.778 | 0.497 | 0.534 | – | 0.518 | 0.804 | 0.313 | 0.514 | 0.735 | 0.681 | 0.519 |
| C[C@@H](c1ccc2nccn2c1)n1nnc2ncc(-c3cnn(C)c3)nc21 [Savolitinib] + CC1(C)CCC(CN2CCN(c3ccc(C(=O)NS(=O)(=O)c4ccc(NCC5CCOCC5)c([N+](=O)[O-])c4)c(Oc4cnc5[nH]ccc5c4)c3)CC2)=C(c2ccc(Cl)cc2)C1 [Venetoclax] (first compound max 1 µM, 7x7, partner max 1 µM) | 0.114 | 0.145 | 0.0993 | 0.122 | 0.281 | 0.143 | 0.0879 | 0.217 | 0.143 | 0.22 | 0.161 | – | 0.181 | 0.0706 | 0.124 | 0.0731 | 0.129 | 0.121 | 0.115 |
| Cc1nc(-c2cn3c(n2)-c2ccc(-c4cnn(C(C)(C)C(N)=O)c4)cc2OCC3)n(C(C)C)n1 [Taselisib] + O=C(Nc1ccc2[nH]nc(-c3ccncc3)c2c1)[C@@H]1CCN(CC(=O)N2CCN(c3ccc(-c4ncccn4)cc3)CC2)C1 [SCH772984] (first compound max 10 µM, 7x7, partner max 5 µM) | 0.697 | 0.521 | 0.933 | 0.871 | 0.154 | 0.4 | 0.954 | 0.843 | 0.816 | 1 | 0.531 | 0.747 | 0.589 | – | – | – | – | – | – |
| CS(=O)(=O)CCNCc1ccc(-c2ccc3ncnc(Nc4ccc(OCc5cccc(F)c5)c(Cl)c4)c3c2)o1 [Lapatinib] + NC1(c2ccc(-c3nc4ccn5c(=O)[nH]nc5c4cc3-c3ccccc3)cc2)CCC1 [MK-2206] (first compound max 10 µM, 7x7, partner max 10 µM) | 0.941 | 0.627 | 0.943 | 0.953 | 0.672 | 0.475 | 0.95 | 0.929 | 0.921 | 0.948 | 0.739 | 0.959 | 0.607 | – | – | – | – | – | – |
